Assay [1] addresses T1, muscle-type nicotinic acetylcholine receptors (Homo sapiens, UniProt P02708+P07510+Q07001).
T1 construct: endogenous in cells; host or cells: TE671/RD (own knowledge of the cited US 5,597,919)
As to the kind of experiment: Determination of interaction with muscle receptors. The format is cell-based. The settings on record: maximal activation as percentage of maximal activation induced by (S)-(-)-nicotine; for Emax: read-out: effect at muscle sites (Emax). The method, then:
(§1) The determination of the interaction of the compounds with muscle receptors was carried out in accordance with the techniques described in U.S. Pat. No. 5,597,919 to Dull et al. The maximal activation for individual compounds (Emax) was determined as a percentage of the maximal activation induced by (S)-(−)-nicotine. Reported Emax values represent the amount released relative to (S)-(−)-nicotine on a percentage basis. […] Such preferable compounds have the capability to activate human CNS receptors without activating muscle-type nicotinic acetylcholine receptors. Thus, there is provided a therapeutic window for utilization in the treatment of CNS disorders. […] The compounds begin to cause muscle effects only when employed in amounts of many times those required to activate dopamine release.

Assay [2] concerns ganglia-type nicotinic acetylcholine receptors. Description: Determination of interaction with ganglion receptors. The format is cell-based. The settings on record: maximal activation as percentage of maximal activation induced by (S)-(-)-nicotine. The method, then:
as §1, with “ganglionic” for “muscle”, “ganglia-type” for “muscle-type”, “cause” for “cause muscle”, “effects at ganglia” for “effects”

The target in a further assay is CNS nicotinic receptors (Rattus norvegicus, UniProt P09483+P12390). As to the kind of experiment: Determination of binding to relevant receptor sites. As to conditions: inhibition constants calculated from IC50 values by the method of Cheng et al. Here is the method:
Binding of the compounds to relevant receptor sites was determined in accordance with the techniques described in U.S. Pat. No. 5,597,919 to Dull et al. Inhibition constants (Ki values), reported in nM, were calculated from the IC50 values using the method of Cheng et al., Biochem, Pharmacol. 22:3099 (1973).

We go through 19 compounds from US6627648B1, “Pharmaceutical compositions and methods for use” (Targacept, Inc., priority 1999, dated 2003).

T1 sequence (P02708 21-457): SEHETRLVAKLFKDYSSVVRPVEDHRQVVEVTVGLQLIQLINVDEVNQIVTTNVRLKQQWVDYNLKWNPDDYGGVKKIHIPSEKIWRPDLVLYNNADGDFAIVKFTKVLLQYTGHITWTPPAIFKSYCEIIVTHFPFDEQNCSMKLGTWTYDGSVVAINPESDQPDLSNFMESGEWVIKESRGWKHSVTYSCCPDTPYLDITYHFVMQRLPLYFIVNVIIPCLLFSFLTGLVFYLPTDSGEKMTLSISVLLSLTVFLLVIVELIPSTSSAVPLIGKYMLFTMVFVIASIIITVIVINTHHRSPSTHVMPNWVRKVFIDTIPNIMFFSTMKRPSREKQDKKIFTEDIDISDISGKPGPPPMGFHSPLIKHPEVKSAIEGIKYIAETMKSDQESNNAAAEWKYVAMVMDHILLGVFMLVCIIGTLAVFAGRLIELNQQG
T1 sequence (P11230 24-501 partner): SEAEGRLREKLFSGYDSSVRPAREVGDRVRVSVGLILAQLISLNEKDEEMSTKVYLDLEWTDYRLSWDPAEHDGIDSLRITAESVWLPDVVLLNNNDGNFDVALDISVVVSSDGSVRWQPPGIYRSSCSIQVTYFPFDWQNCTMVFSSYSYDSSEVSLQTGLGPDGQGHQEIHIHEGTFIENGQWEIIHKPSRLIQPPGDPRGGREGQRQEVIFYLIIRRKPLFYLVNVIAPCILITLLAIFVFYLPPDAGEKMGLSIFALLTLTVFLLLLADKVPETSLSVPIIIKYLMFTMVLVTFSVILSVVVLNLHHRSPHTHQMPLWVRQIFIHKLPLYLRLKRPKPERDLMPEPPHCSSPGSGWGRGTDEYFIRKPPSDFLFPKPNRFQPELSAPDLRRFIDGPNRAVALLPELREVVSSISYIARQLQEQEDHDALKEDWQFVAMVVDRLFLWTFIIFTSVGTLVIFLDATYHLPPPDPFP
T1 sequence (Q07001 22-517): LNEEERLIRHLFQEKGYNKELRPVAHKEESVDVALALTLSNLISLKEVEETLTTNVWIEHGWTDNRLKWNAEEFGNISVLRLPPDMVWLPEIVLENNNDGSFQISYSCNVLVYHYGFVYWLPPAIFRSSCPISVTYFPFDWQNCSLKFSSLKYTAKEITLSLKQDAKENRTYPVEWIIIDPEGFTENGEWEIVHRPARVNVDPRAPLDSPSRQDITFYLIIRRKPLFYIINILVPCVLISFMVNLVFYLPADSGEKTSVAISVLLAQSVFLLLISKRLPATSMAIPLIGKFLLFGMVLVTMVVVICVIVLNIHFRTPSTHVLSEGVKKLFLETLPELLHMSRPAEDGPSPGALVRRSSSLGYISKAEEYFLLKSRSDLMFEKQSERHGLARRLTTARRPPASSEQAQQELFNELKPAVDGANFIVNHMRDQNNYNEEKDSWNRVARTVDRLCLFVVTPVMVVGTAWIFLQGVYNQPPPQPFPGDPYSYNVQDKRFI
T1 sequence (P07510 23-517): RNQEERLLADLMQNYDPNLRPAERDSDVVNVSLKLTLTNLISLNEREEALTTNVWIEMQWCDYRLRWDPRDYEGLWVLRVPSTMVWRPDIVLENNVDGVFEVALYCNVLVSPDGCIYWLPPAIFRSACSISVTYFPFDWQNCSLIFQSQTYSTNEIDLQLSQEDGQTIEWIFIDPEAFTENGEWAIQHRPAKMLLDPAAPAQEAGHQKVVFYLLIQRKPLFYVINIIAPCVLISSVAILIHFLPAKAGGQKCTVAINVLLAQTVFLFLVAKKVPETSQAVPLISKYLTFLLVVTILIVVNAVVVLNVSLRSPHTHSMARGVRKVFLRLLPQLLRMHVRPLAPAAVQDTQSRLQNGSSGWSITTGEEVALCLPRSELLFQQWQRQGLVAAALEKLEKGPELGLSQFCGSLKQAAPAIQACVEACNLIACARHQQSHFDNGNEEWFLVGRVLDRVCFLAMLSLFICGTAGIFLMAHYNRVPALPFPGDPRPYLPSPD
Sequence of CNS nicotinic receptors (P09483 31-630): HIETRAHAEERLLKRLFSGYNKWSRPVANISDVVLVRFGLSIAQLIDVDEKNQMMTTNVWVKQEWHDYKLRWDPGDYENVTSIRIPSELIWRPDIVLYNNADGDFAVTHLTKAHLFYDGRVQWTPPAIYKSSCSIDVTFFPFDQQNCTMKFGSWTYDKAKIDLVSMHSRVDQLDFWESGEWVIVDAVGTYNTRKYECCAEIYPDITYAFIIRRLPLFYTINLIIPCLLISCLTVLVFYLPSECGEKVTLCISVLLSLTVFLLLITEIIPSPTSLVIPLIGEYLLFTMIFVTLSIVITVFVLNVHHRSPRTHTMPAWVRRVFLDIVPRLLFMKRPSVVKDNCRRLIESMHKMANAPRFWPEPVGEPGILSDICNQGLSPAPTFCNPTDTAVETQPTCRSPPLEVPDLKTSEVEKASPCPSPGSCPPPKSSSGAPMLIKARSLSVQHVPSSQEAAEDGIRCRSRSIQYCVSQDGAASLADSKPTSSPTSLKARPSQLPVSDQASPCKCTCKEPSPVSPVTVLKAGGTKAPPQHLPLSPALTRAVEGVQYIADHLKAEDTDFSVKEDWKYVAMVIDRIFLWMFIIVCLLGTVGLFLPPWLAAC
Sequence of CNS nicotinic receptors (P12390 25-500): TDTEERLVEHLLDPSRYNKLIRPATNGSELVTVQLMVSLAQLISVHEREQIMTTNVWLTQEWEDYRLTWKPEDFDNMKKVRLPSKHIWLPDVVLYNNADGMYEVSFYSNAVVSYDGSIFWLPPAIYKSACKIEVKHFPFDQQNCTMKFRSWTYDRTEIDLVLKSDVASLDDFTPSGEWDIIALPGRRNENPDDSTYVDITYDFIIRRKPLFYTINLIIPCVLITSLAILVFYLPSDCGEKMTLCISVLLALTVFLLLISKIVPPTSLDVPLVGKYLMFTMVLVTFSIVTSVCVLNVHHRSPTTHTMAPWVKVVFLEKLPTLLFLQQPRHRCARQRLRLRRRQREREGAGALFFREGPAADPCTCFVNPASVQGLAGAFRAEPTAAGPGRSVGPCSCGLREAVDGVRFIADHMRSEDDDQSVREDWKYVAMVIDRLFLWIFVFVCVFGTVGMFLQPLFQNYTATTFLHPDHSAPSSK

Take “3-(3-Pyridyloxy)propylamine Hemigalactarate [Example 10]”: in assay [1], the “effect at muscle sites (Emax)” value worked out at 0%. Besides, in assay [2], the “effect at ganglia sites (Emax)” value was 0%.
Take “3-(5-Chloro-3-pyridyloxy)propylamine Hemigalactarate [Example 15]”: the “effect at muscle sites (Emax)” value in assay [1] worked out at 0%. In assay [2], the “effect at ganglia sites (Emax)” value was 4%.
Turning to “4-(3-Pyridyloxy)butylamine Hemigalactarate [Example 12]”, the “effect at muscle sites (Emax)” value in assay [1] came to 0%. Also, the “effect at ganglia sites (Emax)” value in assay [2] is listed as 11%.
Regarding `CNCCCSc1cncc(Br)c1` [Example 6, 3-(5-Bromo-3-pyridylthio))propyl)methylamine Hemigalactarate], the Ki at CNS nicotinic receptors was 40 µM.
Consider `CN(C)CCOc1cccnc1` [Example 9, Dimethyl(2-(3-pyridyloxy)ethylamine Hemigalactarate], for which the Emax in assay [1] stood at 0%. Moreover, the “effect at ganglia sites (Emax)” value in assay [2] worked out at 0%.
`Cl.Cl.c1cncc(OC2CCNCC2)c1` [Example 35, 3-(4-Piperidinyloxy)pyridine dihydrochloride]: the Emax in assay [1] turned out to be 16%. The “effect at ganglia sites (Emax)” value in assay [2] came out at 9%.
Consider “(3-(3-Aminophenoxy)propyl)methylamine Hemigalactarate [Example 30]”, for which, in assay [1], the “effect at muscle sites (Emax)” value stood at 11%. The “effect at ganglia sites (Emax)” value in assay [2] is listed as 5%.
Take “(3-(5-Chloro(3-pyridyloxy))propyl)methylamine Hemigalactarate [Example 16]”: the “effect at muscle sites (Emax)” value in assay [1] was 16%. The “effect at ganglia sites (Emax)” value in assay [2] was 7%.
As to “Cyclopropyl(3-(3-pyridyloxy)propyl)amine Hemigalactarate [Example 25]”, in assay [1], the “effect at muscle sites (Emax)” value is 9%. The “effect at ganglia sites (Emax)” value in assay [2] is on record as 10%.
On to “Dimethyl(3-(3-pyridyloxy)propyl)amine Hemigalactarate [Example 11]”, for which, in assay [1], the “effect at muscle sites (Emax)” value amounted to 8%. The “effect at ganglia sites (Emax)” value in assay [2] was determined as 5%.
The like results for “Ethyl(3-(3-pyridyloxy)propyl)amine Hemigalactarate [Example 22]” were, in that order, 13% and 13%.
“Methyl(1-methyl-3-(3-pyridyloxy)propyl)amine Hemigalactarate [Example 26]”: in assay [1], the “effect at muscle sites (Emax)” value is 16%. Moreover, in assay [2], the “effect at ganglia sites (Emax)” value was 20%.
In the same order, the values of “Methyl(2-(3-pyridyloxy)ethyl)amine Hemigalactarate [Example 8]” are 0% and 0%.
Turning to “Methyl(3-(2-methyl(3-pyridyloxy))propyl)amine Hemigalactarate [Example 21]”, the “effect at muscle sites (Emax)” value in assay [1] was 0%. In assay [2], the “effect at ganglia sites (Emax)” value was found to be 15%.
The like results for “Methyl(3-(3-nitrophenoxy)propyl)amine Hemigalactarate [Example 28]” were, in that order, 10% and 9%.
For “Methyl(3-(5-(phenylmethoxy)(3-pyridyloxy))propyl)amine Hemigalactarate [Example 19]”, the “effect at muscle sites (Emax)” value in assay [1] came out at 1%. For the same compound, in assay [2], the “effect at ganglia sites (Emax)” value stood at 3%.
Regarding “Methyl(3-(5-isopropoxy-3-pyridyloxy)propyl)amine Monogalactarate [Example 18]”, the “effect at muscle sites (Emax)” value in assay [1] amounted to 22%. The “effect at ganglia sites (Emax)” value in assay [2] came out at 0%.
Consider “Methyl(3-(5-methoxy-3-pyridyloxy)propyl)amine Hemigalactarate [Example 17]”, for which, in assay [1], the “effect at muscle sites (Emax)” value is 10%. In assay [2], the “effect at ganglia sites (Emax)” value is 5%.
With “Methyl(3-(6-methyl(3-pyridyloxy))propyl)amine Hemigalactarate [Example 20]”, the “effect at muscle sites (Emax)” value in assay [1] is given as 0%.

As a reminder, the Ki is a dissociation constant, usually derived from enzyme kinetics or from competition with a known ligand. Usually Emax stands for the greatest response seen or fitted, relative to the assay's reference.
